# Source: EP4778933A1 (Chengdu Hyperway Pharmaceuticals Co., Ltd., priority 2023, dated 2025)
# Where two headings read alike, the source gives them in different places.
# Tested on: KRAS G12D-mediated ERK phosphorylation
# Experiment: Inhibition of KRAS G12D-mediated ERK phosphorylation in AGS cells (in-cell pERK/GAPDH immunofluorescence)
# Format: cell-based
# Description: Day 1: AGS cells, SW480 cells, NCI H358 cells, HCT116 cells, and KP2 cells were seeded into 384-well cell culture plates and cultured overnight in a 37°C, 5% CO2 incubator.
# Day 2: The compounds were added to the plates using Echo550 and incubated for 3 h in a 37°C, 5% CO2 incubator. Then, cells fixed with paraformaldehyde, permeated with methanol and blocked with a blocking solution were added. Finally, a mixed solution of primary antibodies (rabbit anti pERK, mouse anti GAPDH) was added, and the mixture was incubated overnight at 4°C.
# Day 3: The mixed solution of primary antibodies was discarded, and a mixed solution of secondary antibodies (goat anti rabbit 800 CW, goat anti mouse 680 RD) was added. The resulting mixture was incubated at room temperature in the dark. Finally, the cell culture plate was washed with PBST, and then inverted for 1 minute of centrifugation. The fluorescence signal values were read with Odyssey CLx.
# ERK phosphorylation was calculated according to the following formula: [formula] • Negative control: DMSO • Positive control: 10 µM Reference • IC50 value was fitted and calculated by XLFit 5.0 using the parametric formula. • Y = Bottom+(Top-Bottom)/(1+10^((LogIC50-X)*HillSlope)) • X: log value of compound concentration. • Y: average value of relative expression of p-ERK between replicate wells.
# [1] = AGS cells, 3 h incubation, read-out: Inhibitory activity on ERK phosphorylation (IC50) AGS-G12D
smiles,measurement,setting,value
"N#Cc1c(N)sc2c(F)ccc(-c3c(Cl)cc4c(N5CC6COCC6C5)nc(OCC56CCCN5C(c5cc(F)c(F)c(F)c5)CC6)nc4c3F)c12 (racemic) [Example 8, 4-[4-(3,3a,4,5,6,6a-hexahydro-1H-furano[4,3-c]pyrrolo-5-yl)-6-chloro-8-fluoro-2-({[3-(3,4,5-trifluorophenyl)-2,3,5,6,7,7a-hexahydro-1H-pyrrolizin-7a-yl]methyl}oxy)quinazolin-7-yl]-2-amino-7-fluorobenzo[b]thiophene-3-carbonitrile]",IC50,"Homo sapiens, AGS, 3 h, read-out: Inhibitory activity on ERK phosphorylation (IC50) AGS-G12D, AGS cells, 3 h incubation",> 1000 nM
"N#Cc1c(N)sc2c(F)ccc(-c3c(Cl)cc4c(N5CC6C[C@@H](C5)c5cccc(=O)n5C6)nc(OCC56CCCN5C(c5cc(F)c(F)c(F)c5)CC6)nc4c3F)c12 (mixture of isomers) [Example 7, 2-amino-4-{6-chloro-8-fluoro-4-[(1S)-6-oxo-7,11-diazatricyclo[7.3.1.02,7]trideca-2(3),4-dien-11-yl]-2-({[3-(3,4,5-trifluorophenyl)-2,3,5,6,7,7a-hexahydro-1H-pyrrolizin-7a-yl]methyl}oxy)quinazolin-7-yl}-7-fluorobenzo[b]thiophene-3-carbonitrile]",IC50,"Homo sapiens, AGS cells, 3 h incubation, read-out: Inhibitory activity on ERK phosphorylation (IC50) AGS-G12D",738 nM
"CC1(O)COCCN(c2nc(OCC34CCCN3C(c3cc(F)c(F)c(F)c3)CC4)nc3c(F)c(-c4cccc5sc(N)c(C#N)c45)c(I)cc23)C1 (single isomer, unassigned) [Example 30, 2-amino-4-[6-iodo-8-fluoro-4-(6-hydroxy-6-methyl-1,4-oxazepan-4-yl)-2-({[3-(3,4,5-trifluorophenyl)-2,3,5,6,7,7a-hexahydro-1H-pyrrolizin-7a-yl]methyl}oxy)quinazolin-7-yl]benzo[b]thiophene-3-carbonitrile]",IC50,[1],94 nM
"CC1(O)COCCN(c2nc(OCC34CCCN3C(c3cc(F)c(F)c(F)c3)CC4)nc3c(F)c(-c4cccc5sc(N)c(C#N)c45)c(Br)cc23)C1 (single isomer, unassigned) [Example 27, 2-amino-4-[6-bromo-8-fluoro-4-(6-hydroxy-6-methyl-1,4-oxazepan-4-yl)-2-({[3-(3,4,5-trifluoropheny 1)-2,3,5,6,7,7a-hexahydro-1H-pyrrolizin-7a-yl]methyl}oxy)quinazolin-7-yl]benzo[b]thiophene-3-carb onitrile]",IC50,"AGS cells, 3 h incubation",355 nM
"CC1(O)COCCN(c2nc(OCC34CCCN3C(c3cc(F)c(F)c(F)c3)CC4)nc3c(F)c(-c4cccc5sc(N)c(C#N)c45)c(Cl)cc23)C1 (single isomer, unassigned) [Example 19, 2-amino-4-[6-chloro-8-fluoro-4-(6-hydroxy-6-methyl-1,4-oxazepan-4-yl)-2-({[3-(3,4,5-trifluorophenyl)-2,3,5,6,7,7a-hexahydro-1H-pyrrolizin-7a-yl]methyl}oxy)quinazolin-7-yl]benzo[b]thiophene-3-carbonitrile]",IC50,[1],> 1000 nM
"CN(C)C(=O)C1CN(c2nc(OCC34CCCN3C(c3cc(F)c(F)c(F)c3)CC4)nc3c(F)c(-c4ccc(F)c5sc(N)c(C#N)c45)c(Cl)cc23)CCCO1 (racemic) [Example 16, 4-[7-(2-amino-3-cyano-7-fluorobenzo[b]thiophen-4-yl)-6-chloro-8-fluoro-2-({[3-(3,4,5-trifluorophenyl)-2,3,5,6,7,7a-hexahydro-1H-pyrrolizin-7a-yl]methyl}oxy)quinazolin-4-yl]-N,N-dimethyl-1,4-oxazepan-2-carboxamide]",IC50,"Homo sapiens, AGS, 3 h, AGS cells, 3 h incubation, read-out: Inhibitory activity on ERK phosphorylation (IC50) AGS-G12D",380 nM
"CC1(O)COCCN(c2nc(OCC34CCCN3C(c3cc(F)c(F)c(F)c3)CC4)nc3c(F)c(-c4cccc5sc(N)c(C#N)c45)c(I)cc23)C1 (single isomer, unassigned) [Example 32, 2-amino-4-[6-iodo-8-fluoro-4-(6-hydroxy-6-methyl-1,4-oxazepan-4-yl)-2-({[3-(3,4,5-trifluorophenyl)-2,3,5,6,7,7a-hexahydro-1H-pyrrolizin-7a-yl]methyl}oxy)quinazolin-7-yl]benzo[b]thiophene-3-carbonitrile]",IC50,[1],24 nM
